Where two headings read alike, the source gives them in different places. Marks after values point to notes of the source that are not given here.
Assay: log P by HPLC (EEC Directive 79/831 Annex V.A8)
Assay type: physicochemical
[1] = [b] LC-MS, acidic range, pH 2.7, 0.1% aqueous formic acid and acetonitrile
[2] = [c] LC-MS, neutral range, pH 7.8, 0.001 molar aqueous ammonium hydrogencarbonate and acetonitrile

SMILES	log P [1]	log P [2]	other results
Cc1cccnc1COC(=O)c1cccc(C2CCN(C(=O)Cn3nc(C(F)(F)F)cc3C)CC2)n1 [Example 49]	2.23^[b]		
Cc1ccnc(COC(=O)c2cccc(C3CCN(C(=O)Cn4nc(C(F)(F)F)cc4C)CC3)n2)c1 [Example 50]	3.67^[b]		
Cc1cc(C(F)(F)F)nn1CC(=O)N1CCC(c2cccc(C(=O)Oc3cccc4ccccc34)n2)CC1 [Example 51]	3.97^[b]		
Cc1cc(C(F)(F)F)nn1CC(=O)N1CCC(c2cccc(C(=O)Oc3ccc4ccccc4c3)n2)CC1 [Example 52]	3.9^[b]		
Cc1cc(C(F)(F)F)nn1CC(=O)N1CCC(c2cccc(C(=O)SC3CCCCC3)n2)CC1 [Example 53]		4.83^[c]	
Cc1cc(C(F)(F)F)nn1CC(=O)N1CCC(c2cccc(C(=O)SCc3ccc(Cl)cc3Cl)n2)CC1 [Example 55]	5.17	5.21	
Cc1ccccc1CSC(=O)c1cccc(C2CCN(C(=O)Cn3nc(C(F)(F)F)cc3C)CC2)n1 [Example 56]	4.57	4.58	
Cc1cc(C(F)(F)F)nn1CC(=O)N1CCC(c2cccc(C(=O)SCc3ccccc3Cl)n2)CC1 [Example 57]	4.61^[b]; 4.61^[c]	4.61^[b]; 4.61^[c]	
Cc1cc(C(F)(F)F)nn1CC(=O)N1CCC(c2cccc(C(=O)SCc3c(F)cccc3F)n2)CC1 [Example 58]	4.27	4.29	
Cc1cc(C(F)(F)F)nn1CC(=O)N1CCC(c2cccc(C(=O)SCc3ccc(F)cc3)n2)CC1 [Example 59]	4.29	4.31	
Cc1cc(C(F)(F)F)nn1CC(=O)N1CCC(c2cccc(C(=O)Sc3cccc4ccccc34)n2)CC1 [Example 60]	4.41	4.46	
Cc1cc(C(F)(F)F)nn1CC(=O)N1CCC(c2cccc(C(=O)Sc3ccc4ccccc4c3)n2)CC1 [Example 61]	4.57	4.61	
Cc1cc(C(F)(F)F)nn1CC(=O)N1CCC(c2cccc(C(=O)Sc3ccccc3)n2)CC1 [Example 62]	3.95^[b]; 3.95^[c]	3.95^[b]; 3.95^[c]	
Cc1cc(C(F)(F)F)nn1CC(=O)N1CCC(c2cccc(C(=O)Sc3cccs3)n2)CC1 [Example 63]	3.85	3.88	
Cc1cc(C(F)(F)F)nn1CC(=O)N1CCN(c2cccc(C(=O)N(C)C3CCCCC3)n2)CC1 [Example 64]	3.19	3.21	
Cc1cc(C(F)(F)F)nn1CC(=O)N1CCN(c2cccc(C(=O)NCc3ccccc3Cl)n2)CC1 [Example 65]	3.34	3.36	
Cc1cc(C(F)(F)F)nn1CC(=O)N1CCN(c2cccc(C(=O)NCc3c(F)cccc3F)n2)CC1 [Example 66]	3.11	3.12	
Cc1cc(C(F)(F)F)nn1CC(=O)N1CCN(c2cccc(C(=O)NCc3cccs3)n2)CC1 [Example 67]	2.92	2.93	
Cc1cc(C(F)(F)F)nn1CC(=O)N1CCN(c2cccc(C(=O)OCc3ccccc3Cl)n2)CC1 [Example 72]	3.89	3.9	
Cc1cc(C(F)(F)F)nn1CC(=O)N1CCN(c2cccc(C(=O)OCc3c(F)cccc3F)n2)CC1 [Example 74]	3.54	3.55	
Cc1cc(C(F)(F)F)nn1CC(=O)N1CCN(c2cccc(C(=O)Oc3ccc4ccccc4c3)n2)CC1 [Example 76]	4.01	4.02	
CN(C(=O)c1cccc(C2CCN(C(=O)Cn3nc(C(F)F)cc3C(F)F)CC2)n1)c1ccccc1Cl [Example 77]	3.01^[b]; 3.01^[c]	3.01^[b]; 3.01^[c]	
CN(C(=O)c1cccc(C2CCN(C(=O)Cn3nc(C(F)F)cc3C(F)F)CC2)n1)C1CCCCC1 [Example 78]	3.02	3.08	
CN(Cc1ccc(Cl)cc1Cl)C(=O)c1cccc(C2CCN(C(=O)Cn3nc(C(F)F)cc3C(F)F)CC2)n1 [Example 79]	3.66	3.73	
CN(Cc1ccccn1)C(=O)c1cccc(C2CCN(C(=O)Cn3nc(C(F)F)cc3C(F)F)CC2)n1 [Example 80]	1.81	2.18	
O=C(Cn1nc(C(F)F)cc1C(F)F)N1CCC(c2cccc(C(=O)N3CCOc4ccccc43)n2)CC1 [Example 81]	2.98	2.97	
CC(NC(=O)c1cccc(C2CCN(C(=O)Cn3nc(C(F)F)cc3C(F)F)CC2)n1)c1ccccc1Cl (stereo not drawn) [Example 82]	3.53	3.61	

SMILES	log P [1]	log P [2]	other results
CCCCCC(C)NC(=O)c1cccc(C2CCN(C(=O)Cn3nc(C(F)F)cc3C(F)F)CC2)n1 (stereo not drawn) [Example 83]	3.99	3.95	
O=C(NC1CCc2ccccc21)c1cccc(C2CCN(C(=O)Cn3nc(C(F)F)cc3C(F)F)CC2)n1 (stereo not drawn) [Example 84]	3.4	3.44	
CCCCCCCNC(=O)c1cccc(C2CCN(C(=O)Cn3nc(C(F)F)cc3C(F)F)CC2)n1 [Example 85]	3.96	4.05	
O=C(NCc1ccc(Cl)cc1Cl)c1cccc(C2CCN(C(=O)Cn3nc(C(F)F)cc3C(F)F)CC2)n1 [Example 86]	3.86^[b]; 3.86^[c]	3.86^[b]; 3.86^[c]	
O=C(NCc1ccc(F)cc1F)c1cccc(C2CCN(C(=O)Cn3nc(C(F)F)cc3C(F)F)CC2)n1 [Example 87]	3.22	3.24	
O=C(NCc1ccccc1Cl)c1cccc(C2CCN(C(=O)Cn3nc(C(F)F)cc3C(F)F)CC2)n1 [Example 88]	3.35	3.39	
O=C(NCc1c(F)cccc1F)c1cccc(C2CCN(C(=O)Cn3nc(C(F)F)cc3C(F)F)CC2)n1 [Example 89]	3.11	3.14	
O=C(NCc1ccccn1)c1cccc(C2CCN(C(=O)Cn3nc(C(F)F)cc3C(F)F)CC2)n1 [Example 90]	1.83	2.37	
O=C(NCc1cccs1)c1cccc(C2CCN(C(=O)Cn3nc(C(F)F)cc3C(F)F)CC2)n1 [Example 91]	2.98	2.97	
Cc1ccsc1CNC(=O)c1cccc(C2CCN(C(=O)Cn3nc(C(F)F)cc3C(F)F)CC2)n1 [Example 92]	3.19	3.18	
COC1CCCCC1OC(=O)c1cccc(C2CCN(C(=O)Cn3nc(C(F)F)cc3C(F)F)CC2)n1 (stereo not drawn) [Example 97]	4.17^[b]		
O=C(OC1C=CCCC1)c1cccc(C2CCN(C(=O)Cn3nc(C(F)F)cc3C(F)F)CC2)n1 (stereo not drawn) [Example 98]	3.87^[b]		
O=C(OC1CCCCC1)c1cccc(C2CCN(C(=O)Cn3nc(C(F)F)cc3C(F)F)CC2)n1 [Example 99, Cyclohexyl 6-(1-{[3,5-bis(difluoromethyl)-1H-pyrazol-1-yl]acetyl}piperidin-4-yl)-pyridine-2-carboxylate]			chromatographic logP (HPLC (LC-MS), [b] LC-MS, acidic range, pH 2.7, 0.1% aqueous formic acid and acetonitrile, read-out: log P): 3.83; chromatographic logP (HPLC, pH 2.7, given in the preparation examples, read-out: logP (pH2.7)): 3.83
O=C(OC1CCCc2ccccc21)c1cccc(C2CCN(C(=O)Cn3nc(C(F)F)cc3C(F)F)CC2)n1 (stereo not drawn) [Example 100]	4.07^[b]		
C=CCCCCOC(=O)c1cccc(C2CCN(C(=O)Cn3nc(C(F)F)cc3C(F)F)CC2)n1 [Example 101]	3.8^[b]		
CCCCCCCOC(=O)c1cccc(C2CCN(C(=O)Cn3nc(C(F)F)cc3C(F)F)CC2)n1 [Example 102]	4.59^[b]		
O=C(OCc1ccc(F)cc1F)c1cccc(C2CCN(C(=O)Cn3nc(C(F)F)cc3C(F)F)CC2)n1 [Example 103]	3.54^[b]		
O=C(OCc1c(F)cc(F)cc1F)c1cccc(C2CCN(C(=O)Cn3nc(C(F)F)cc3C(F)F)CC2)n1 [Example 104]	3.57^[b]		
O=C(OCc1ccccc1Cl)c1cccc(C2CCN(C(=O)Cn3nc(C(F)F)cc3C(F)F)CC2)n1 [Example 105]	3.77^[b]		
O=C(OCc1ccccc1F)c1cccc(C2CCN(C(=O)Cn3nc(C(F)F)cc3C(F)F)CC2)n1 [Example 106]	3.45^[b]		
O=C(OCc1c(F)cccc1F)c1cccc(C2CCN(C(=O)Cn3nc(C(F)F)cc3C(F)F)CC2)n1 [Example 107]	3.44^[b]		
Cc1cccnc1COC(=O)c1cccc(C2CCN(C(=O)Cn3nc(C(F)F)cc3C(F)F)CC2)n1 [Example 108]	2.14^[b]		
Cc1csc(COC(=O)c2cccc(C3CCN(C(=O)Cn4nc(C(F)F)cc4C(F)F)CC3)n2)c1 [Example 109]	3.6^[b]		
O=C(Oc1cccc2ccccc12)c1cccc(C2CCN(C(=O)Cn3nc(C(F)F)cc3C(F)F)CC2)n1 [Example 110]	3.82^[b]		
O=C(Oc1ccc2ccccc2c1)c1cccc(C2CCN(C(=O)Cn3nc(C(F)F)cc3C(F)F)CC2)n1 [Example 111]	3.86^[b]		
O=C(SC1CCCCC1)c1cccc(C2CCN(C(=O)Cn3nc(C(F)F)cc3C(F)F)CC2)n1 [Example 112]		4.65	log P ([a] HPLC, acidic range, pH 2.3, 0.1% aqueous phosphoric acid and acetonitrile): 4.63
